Reference: patent US9611254B2, “Triazole compounds and their use as gamma secretase modulators” (Acturum Life Science AB, priority 2013, dated 2017)

Tests used:
Aβ42 [1] = assay: HEK assay: Aβ42 secreted by HEK cells stably expressing APPswe (Meso Scale electrochemiluminescence); format: cell-based, Human; details: 4-6 hours incubation with compound, Aβ42 in cell medium; for IC50: Homo sapiens, HEK293, HEK cell line stably expressing APPswe, read-out: pIC50 Aβ42 HEK assay (converted)
Protocol: Compounds were diluted in 100% DMSO and stored at […] prior to use. Human Embryonic Kidney (HEK) cell line stably expressing APP with the Swedish mutation (APPswe) was cultured using Dulbecco's Modified Eagles medium (DMEM) supplied with […] glucose, Na-pyruvate and GlutaMAX, 10% Foetal bovine serum, 100 U/mL penicillin-streptomycin (PEST), 1× non-essential amino acids (NEAA), […] Hepes, 100 μg/mL Zeocine. Cells at about 80% confluence were washed with PBS, detached from culture flasks using 1× Trypsin/EDTA diluted in PBS, re-suspended in cell media and plated in 384-well poly-d-lysine coated cell culture plates at about 10000-15000 cells/well, in 25 μL cell media. Optionally, cryo-preserved cells (frozen and stored at −140° C. in 90% cell media and 10% DMSO) were thawed, washed and plated as above. Next the cells were incubated for 15-24 h at 37° C. and 5% CO2, after which cell medium was changed. Fresh medium containing test compound diluted ×200 from prepared compound plate was added to the cells before further incubation for 4-6 hours at 37° C. and 5% CO2. After incubation with test compound the amount of Aβ peptides, including Aβ42, Aβ40, Aβ39, Aβ38 and Aβ37, secreted to cell medium was analyzed using the electrochemiluminescence assay technology from Meso Scale Discovery Technology, in combination with specific antibodies raised against the different Aβ peptides. Potential cytotoxic effects of the compounds were assayed by measuring the ATP content (ViaLight) from cell lysate.

Aβ42 [2] = assay: PCN assay: Aβ42 secreted by mouse primary cortical neuronal cells (ELISA); format: cell-based; details: primary cortical neuronal cells from 16-day mouse embryos, 16-20 hours incubation with compound, Aβ42 in cell medium; for IC50: Mus musculus, read-out: pIC50 Aβ42 PCN assay (converted)
Protocol: Compounds were diluted in 100% DMSO and stored at […] prior to use. Primary cortical neuronal cells (PCN) were isolated from 16-day mouse embryos and cultured in Ham's F12 media containing 10% Foetal bovine serum, 10 mM Hepes, 2 mM L-glutamine and 100 U/mL Penicillin-Streptomycin. 150000-250000 cells/well, in 200 μL cell media were seeded onto 96-well poly-D-Lysine coated plates. After incubation at 37° C., 5% CO2 for five days, the media was exchanged for fresh medium containing test compound diluted ×100, before further incubation for 16-20 hours at 37° C. and 5% CO2. After incubation with test compound the amount of Aβ42 peptides secreted to cell medium was analyzed using the solid phase sandwich Enzyme-Linked-Immuno-Sorbent Assay (ELISA)-kit from Invitrogen for detection of mouse βAmyloid 1-42. Potential cytotoxic effects of the compounds were assayed by measuring the ATP content (Via Light) from cell lysate.

Row | Compound | IC50 (Aβ42 [1]) [nM] | pIC50 Aβ42 HEK assay (Aβ42 [1]; HEK cell line stably expressing APPswe) | IC50 (Aβ42 [2]) [nM] | pIC50 Aβ42 PCN assay (Aβ42 [2])
1 | COc1cc(Nc2nc(N3CCC3c3ccccc3)n(CC(C)(C)O)n2)ccc1-n1cnc(C)c1 (racemic) [Example 5, 1-(3-(3-Methoxy-4-(4-methyl-1H-imidazol-1-yl)phenylamino)-5-(2-phenylazetidin-1-yl)-1H-1,2,4-triazol-1-yl)-2-methylpropan-2-ol] | 25.1 | – | 31.6 | –
2 | COc1cc(Nc2nc(N3CC(c4ccccc4)C3)n(CC(C)(C)O)n2)ccc1-n1cnc(C)c1 [Example 1, 1-(3-(3-Methoxy-4-(4-methyl-1H-imidazol-1-yl)phenylamino)-5-(3-phenylazetidin-1-yl)-1H-1,2,4-triazol-1-yl)-2-methylpropan-2-ol] | 39.8 | – | 15.8 | –
3 | COc1cc(Nc2nc(N3CC(F)(c4ccccc4)C3)n(CC(C)(C)O)n2)ccc1-n1cnc(C)c1 [Example 2, 1-(5-(3-Fluoro-3-phenylazetidin-1-yl)-3-(3-methoxy-4-(4-methyl-1H-imidazol-1-yl)phenylamino)-1H-1,2,4-triazol-1-yl)-2-methylpropan-2-ol] | 50.1 | – | 31.6 | –
4 | COc1cc(Nc2nc(N3CC(c4ccccc4)C3)n(C)n2)ccc1-n1cnc(C)c1 [Example 3, N-(3-Methoxy-4-(4-methyl-1H-imidazol-1-yl)phenyl)-1-methyl-5-(3-phenylazetidin-1-yl)-1H-1,2,4-triazol-3-amine] | 39.8 | – | 79.4 | –
5 | COc1cc(Nc2nc(N3CCC3c3ccccc3)n(C)n2)ccc1-n1cnc(C)c1 (stereo not drawn) [Example 4, N-(3-Methoxy-4-(4-methyl-1H-imidazol-1-yl)phenyl)-1-methyl-5-(2-phenylazetidin-1-yl)-1H-1,2,4-triazol-3-amine] | 25.1 | – | 25.1 | –

Further lines, with some results ahead:

Row | IC50 (Aβ42 [1]) [nM] | pIC50 Aβ42 HEK assay (Aβ42 [1]; HEK cell line stably expressing APPswe) | Compound | IC50 (Aβ42 [2]) [nM] | pIC50 Aβ42 PCN assay (Aβ42 [2])
6 | 25.1 | – | COc1cc(Nc2nc(N3CCC3c3ccccc3)n(CC(C)(C)O)n2)ccc1-n1cnc(C)c1 (single isomer, unassigned; isomer 1) [Example 6, 1-(3-(3-Methoxy-4-(4-methyl-1H-imidazol-1-yl)phenylamino)-5-(2-phenylazetidin-1-yl)-1H-1,2,4-triazol-1-yl)-2-methylpropan-2-ol, isomer 1] | – | 7.2
7 | – | 7.8 | COc1cc(Nc2nc(N3CCC3c3ccccc3)n(CC(C)(C)O)n2)ccc1-n1cnc(C)c1 (single isomer, unassigned; isomer 2) [Example 7, 1-(3-(3-Methoxy-4-(4-methyl-1H-imidazol-1-yl)phenylamino)-5-(2-phenylazetidin-1-yl)-1H-1,2,4-triazol-1-yl)-2-methylpropan-2-ol, isomer 2] | – | 7.7
8 | 50.1 | – | COc1cc(Nc2nc(N3CC4(CCC4)C3)n(CC(C)(C)O)n2)ccc1-n1cnc(C)c1 [Example 8, 1-(3-(3-Methoxy-4-(4-methyl-1H-imidazol-1-yl)phenylamino)-5-(2-azaspiro[3.3]heptan-2-yl)-1H-1,2,4-triazol-1-yl)-2-methylpropan-2-ol] | 63.1 | –
9 | 31.6 | – | COc1cc(Nc2nc(N3CCC34CCCC4)n(CC(C)(C)O)n2)ccc1-n1cnc(C)c1 [Example 9, 1-(3-(3-Methoxy-4-(4-methyl-1H-imidazol-1-yl)phenylamino)-5-(1-azaspiro[3.4]octan-1-yl)-1H-1,2,4-triazol-1-yl)-2-methylpropan-2-ol] | 31.6 | –
